This passage reports IC50, Ki and Km results from PMC3411725 (PLoS ONE, 2012).

In data set [1] the target is T1, AroAE.coli (Escherichia coli, UniProt P0A6D3).
T1 construct: gene aroA; overexpressed and purified as P1 (pET-28a, His-tag, E. coli BL21(DE3), HisTrap)
T1 sequence (P0A6D3 1-427): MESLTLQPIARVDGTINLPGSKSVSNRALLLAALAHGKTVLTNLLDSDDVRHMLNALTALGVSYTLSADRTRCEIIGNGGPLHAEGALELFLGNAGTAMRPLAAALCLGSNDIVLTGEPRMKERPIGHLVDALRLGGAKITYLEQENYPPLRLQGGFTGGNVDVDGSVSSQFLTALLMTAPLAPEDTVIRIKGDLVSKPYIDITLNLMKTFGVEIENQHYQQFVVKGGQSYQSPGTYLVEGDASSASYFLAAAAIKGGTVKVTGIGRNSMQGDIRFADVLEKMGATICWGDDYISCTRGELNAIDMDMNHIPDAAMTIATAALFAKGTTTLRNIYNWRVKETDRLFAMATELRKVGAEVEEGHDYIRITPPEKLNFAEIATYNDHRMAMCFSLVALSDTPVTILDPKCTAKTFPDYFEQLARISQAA
Briefly: malachite green phosphate release assay, dose-response fit. The data set is classed as biochemical. To be noted: read-out: IC50 [glyphosate] ^e.

Data set [2] addresses T2, AroAE.coli (Escherichia coli, UniProt P0A6D3, G96A).
T2 construct: gene aroA
Briefly: biochemical.

Data set [3] has as its target T2, AroAE.coli. Briefly: biochemical. The source holds these as a separate data set.
The target in data set [4] is T1, AroAE.coli. Briefly: malachite green phosphate release assay, Lineweaver-Burk. As to conditions: read-out: K i [glyphosate] ^d. It counts as biochemical.
Substrate in data set [5]: C=C(OP(=O)(O)O)C(=O)O
The description is as above. As to conditions: 1 mM S3P, 50 mM HEPES pH 7.0, 28°C. It counts as biochemical, Escherichia coli.

Regarding `O=C(O)CNCP(=O)(O)O` [glyphosate], the half-inhibitory concentration (IC50) (usually the midpoint of a concentration-inhibition curve) at AroAE.coli [1] amounted to 50 ± 10 µM; against AroAE.coli [3] it was 220 ± 20 µM. The Ki on AroAE.coli [2] worked out at 219.3 ± 1.9 µM; on AroAE.coli [4], 1.4 ± 0.1 µM.

B1: AroAE.coli (Escherichia coli K-12) (protein)
chain: MESLTLQPIARVDGTINLPGSKSVSNRALLLAALAHGKTVLTNLLDSDDVRHMLNALTALGVSYTLSADRTRCEIIGNGGPLHAEGALELFLGNAGTAMRPLAAALCLGSNDIVLTGEPRMKERPIGHLVDALRLGGAKITYLEQENYPPLRLQGGFTGGNVDVDGSVSSQFLTALLMTAPLAPEDTVIRIKGDLVSKPYIDITLNLMKTFGVEIENQHYQQFVVKGGQSYQSPGTYLVEGDASSASYFLAAAAIKGGTVKVTGIGRNSMQGDIRFADVLEKMGATICWGDDYISCTRGELNAIDMDMNHIPDAAMTIATAALFAKGTTTLRNIYNWRVKETDRLFAMATELRKVGAEVEEGHDYIRITPPEKLNFAEIATYNDHRMAMCFSLVALSDTPVTILDPKCTAKTFPDYFEQLARISQAA
notes: overexpressed and purified as P1 (pET-28a, His-tag, E. coli BL21(DE3), HisTrap)
As for B1, in data set [5], the Km – broadly, the concentration of substrate that gives half-maximal velocity – is 65.8 ± 5.6 µM.
